What was measured:
mTORC1 [1] = assay: S6K phosphorylation (mTORC1 activation) by immunoblotting in HeLa cells; type: cell-based; details: for S6K phosphorylation by the leucine analogue itself: HeLa cells starved 1 hour of leucine, 0.8 or 8 mM analogue; for leucine-induced S6K phosphorylation: HeLa cells, preincubated with 0.8 or 8 mM analogue, then 0.8 mM leucine 5 min
Protocol: In FIG. 9b, HeLa cells were starved for 1 hour of leucine and preincubated with either 0.8 or 8 mM leucinol or leucine amide. After 5 min, 0.8 mM leucine was added. After 5 min incubation, cells were harvested and S6K phosphorylation was determined by immunoblotting.
(§1) For leucine depletion, cells were rinsed with leucine-free DMEM twice, incubated in leucine-free DMEM for 60 minutes, and stimulated with […] leucine for 5-60 minutes. For amino acid starvation, cells were rinsed with and incubated in DPBS containing 25 mM glucose, 1 mM sodium pyruvate, lx MEM vitamins for 60 minutes, and replaced with and incubated in DMEM for 5-60 minutes.
(§2) Cells were dissolved in the lysis buffer containing 1% Triton X-100, 40 mM HEPES (pH7.4), 2 mM EDTA, 10 mM pyrophosphate, 10 mM glycerophosphate, and protease inhibitor cocktail. The lysates were centrifuged at 13,000 rpm for 30 minutes. We then fractionated 20 μg of the extracted proteins by SDS-PAGE. For immunoprecipitations, the cells were lysed (50 mM Tris-HCL (pH 7.4), 10 mM NaCl, 1 mM EDTA, 0.5 mM EGTA, 1 mM MgCl2, 0.1% CHAPS, and 0.5% Triton X-100, 1 mM phenylmethylsulfonyl fluoride) and the primary antibodies were added to the lysates and incubated with rotation for 2 hr at 4° C. A 50% slurry of protein agarose G-sepharose was then added and the incubation continued for an additional 4 hr. After washing three times with the ice-cold lysis buffer, the precipitates were dissolved in the SDS sample buffer and separated by SDS-PAGE.

mTORC1 [2] = assay: S6K phosphorylation (mTORC1 activation) by immunoblotting in 293T cells; type: cell-based; details: for EC50: Homo sapiens, HEK-293T; for EC50 / leucine-induced S6K phosphorylation / amino acid-induced S6K phosphorylation: 293T cells; for S6K phosphorylation by the leucine analogue itself: 293T cells starved 1 hour of leucine, 0.8 or 8 mM analogue; for leucine-induced S6K phosphorylation: preincubated with 0.8 or 8 mM analogue, then 0.8 mM leucine 5 min; for amino acid-induced S6K phosphorylation: siRNA 48 hours
Protocol: FIGS. 9a-9d show the effect of LRS knockdown on leucine- or leucine analogues-stimulated S6K phosphorylation. In FIG. 9a, the effect of leucine analogues on leucine-stimulated S6K phosphorylation is shown. 293T cells were starved for 1 hour of leucine and preincubated with either 0.8 or 8 mM leucinol or leucine amide. After 5 min, 0.8 mM leucine was added. After 5 min incubation, cells were harvested and S6K phosphorylation was determined by immunoblotting.
In FIG. 11a, 293T cells were treated with leucine at the indicated concentration for 5 min. Leucine-dependent S6K phosphorylation was determined by immunoblotting. In FIG. 11b, quantitation of p-S6K band in FIG. 11a is shown. EC50 of leucine stimulation of mTORC1 was about […]. In FIG. 11c, kinetic parameters for leucylation and ATP-PPi exchange activity of WT LRS is shown.
as §1, §2

LRS / RagD binding = target: T1, LRS / RagD binding (Homo sapiens, UniProt Q9NQL2+Q9P2J5); assay: In vitro pull-down of RagD with GST-LRS
T1 construct: made in house; RagD: 293T cell lysate
T1 sequence (Q9P2J5 whole entry): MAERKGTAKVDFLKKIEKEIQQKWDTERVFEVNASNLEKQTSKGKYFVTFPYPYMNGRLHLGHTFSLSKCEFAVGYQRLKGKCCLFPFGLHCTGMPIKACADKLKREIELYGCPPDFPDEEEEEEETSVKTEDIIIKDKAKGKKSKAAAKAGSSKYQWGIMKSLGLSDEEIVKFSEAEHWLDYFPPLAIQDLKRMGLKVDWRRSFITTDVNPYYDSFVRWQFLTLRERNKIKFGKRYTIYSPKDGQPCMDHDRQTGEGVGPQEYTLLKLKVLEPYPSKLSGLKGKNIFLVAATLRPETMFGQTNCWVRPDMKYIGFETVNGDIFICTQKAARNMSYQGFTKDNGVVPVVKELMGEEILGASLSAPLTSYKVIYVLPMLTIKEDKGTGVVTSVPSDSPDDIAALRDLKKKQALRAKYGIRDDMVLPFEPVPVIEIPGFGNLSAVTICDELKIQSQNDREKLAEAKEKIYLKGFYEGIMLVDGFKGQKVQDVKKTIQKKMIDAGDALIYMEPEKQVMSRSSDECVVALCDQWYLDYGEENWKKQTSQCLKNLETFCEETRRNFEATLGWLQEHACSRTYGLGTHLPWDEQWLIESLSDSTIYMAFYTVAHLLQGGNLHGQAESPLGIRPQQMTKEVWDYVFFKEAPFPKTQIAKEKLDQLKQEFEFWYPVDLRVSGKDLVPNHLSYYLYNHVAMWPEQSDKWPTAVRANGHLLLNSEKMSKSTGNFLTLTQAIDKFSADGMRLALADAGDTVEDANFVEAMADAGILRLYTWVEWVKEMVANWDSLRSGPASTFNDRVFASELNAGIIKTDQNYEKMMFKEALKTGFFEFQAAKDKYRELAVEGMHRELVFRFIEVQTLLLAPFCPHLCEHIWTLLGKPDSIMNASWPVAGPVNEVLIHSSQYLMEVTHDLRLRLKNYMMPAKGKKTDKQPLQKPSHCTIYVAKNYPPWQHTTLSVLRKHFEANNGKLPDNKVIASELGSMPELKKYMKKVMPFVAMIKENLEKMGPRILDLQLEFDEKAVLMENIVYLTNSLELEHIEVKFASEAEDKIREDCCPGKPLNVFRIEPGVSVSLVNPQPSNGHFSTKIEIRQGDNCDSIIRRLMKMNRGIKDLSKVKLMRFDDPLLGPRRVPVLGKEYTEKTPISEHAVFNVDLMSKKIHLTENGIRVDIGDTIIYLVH
T1 sequence (Q9NQL2 whole entry): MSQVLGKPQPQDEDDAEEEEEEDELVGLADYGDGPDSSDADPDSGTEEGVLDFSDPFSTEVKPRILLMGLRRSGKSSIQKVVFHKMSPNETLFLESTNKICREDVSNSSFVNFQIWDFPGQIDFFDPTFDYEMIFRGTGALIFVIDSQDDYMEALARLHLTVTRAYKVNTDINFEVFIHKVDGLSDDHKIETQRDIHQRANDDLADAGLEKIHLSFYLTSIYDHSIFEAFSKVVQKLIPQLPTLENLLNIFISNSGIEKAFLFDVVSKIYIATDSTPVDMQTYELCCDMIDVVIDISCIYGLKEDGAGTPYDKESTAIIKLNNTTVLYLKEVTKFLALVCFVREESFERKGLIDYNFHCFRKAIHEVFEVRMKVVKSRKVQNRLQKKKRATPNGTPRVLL
Protocol: In FIG. 6c, purified GST or GST-LRS protein was incubated with HA-RagD transfected cell lysates in the presence of GDPβS or GTPγS. The co-precipitated RagD was determined by immunoblotting with anti-HA antibody.
In FIG. 10a, the effect of tRNA on in vitro LRS-RagD binding. 293T cell lysates were incubated with purified GST or GST-fused LRS in the presence of the combinations of leucine (0.1 mM), ATP (0.1 mM), and tRNA^Leu (25 μg). The precipitated RagD was determined by immunoblotting with anti-RagD antibody.
Recombinant LRS or RagD fragment proteins were expressed as GST fusion proteins and purified by glutathione sepharose. The interactions between RagD fragments and myc-LRS overexpressed cell lysates or between LRS fragments and HA-RagD overexpressed cell lysates were tested using in vitro binding assays. Binding assay was conducted in 25 mM Tris-HCl buffer (pH7.4) containing 10 mM NaCl, 1 mM MgCl2, 1 mM EDTA, 0.5 mM EGTA, and 0.5% Triton X-100.

293T cells = assay: Cell size determination (FSC of G1 cells, FACS); type: cell-based
Protocol: For measurement of cell size using forward scatter units (FSC) with unfixed cells. 293T cells were plated, washed once with PBS, and resuspended in PBS containing 0.1% serum, 5 mM EDTA, 5 ng/ml propidium iodide (PI; Sigma). Samples were analyzed by FACS analysis (FACS caliber; Becton Dickinson) for cell size (FSC). The mean of FSC of G1 phase cells was determined.

EGFP-LC3 puncta = assay: Autophagy: EGFP-LC3 puncta in siRNA-transfected cells; type: cell-based; details: starved for leucine and serum for 2 hours
Protocol: The cells were starved for leucine and serum for 2 hours. Accumulation of EGFP-LC3 in puncta, was monitored.

## CC(C)C[C@H](N)C(=O)O [Leucine, L-Leucine]
mTORC1 [1]; Homo sapiens, HeLa cells (data not shown), read-out: EC50 for leucine stimulation of mTORC1
  EC50: ~80 µM
mTORC1 [2]; 5 min, leucine 5 min, quantitation of p-S6K band (FIG. 11b legend), read-out: EC50 of leucine stimulation of mTORC1
  EC50: ~80 µM
mTORC1 [2]; read-out: EC50 for leucine stimulation of mTORC1
  EC50: ~80 µM

## CC(C)C[C@H](N)CO [leucinol, Leucinol]
mTORC1 [1]
  S6K phosphorylation by the leucine analogue itself: no effect
  leucine-induced S6K phosphorylation: inhibited leucine-induced S6K phosphorylation in dose-dependent manner
mTORC1 [2]
  S6K phosphorylation by the leucine analogue itself: no effect
  leucine-induced S6K phosphorylation: inhibited leucine-induced S6K phosphorylation in dose-dependent manner

## Nc1ncnc2c1ncn2[C@@H]1O[C@H](COP(=O)(O)OP(=O)(O)OP(=O)(O)O)[C@@H](O)[C@H]1O [ATP]
LRS / RagD binding; GST-LRS with 293T cell lysates, ATP 0.1 mM, tRNA^Leu 25 μg
  competition with RagD for LRS binding: not

## MRS siRNA: siRNA CUACCGCUGGUUUAACAUUUCGUUU, SEQ ID NO 18 (chemistry not given here)
293T cells
  cell size: no effect
mTORC1 [2]
  amino acid-induced S6K phosphorylation: not

## mTOR siRNA: siRNA GGAAGUACCCUACUUUGCUUGAGGU, SEQ ID NO 15 (chemistry not given here)
EGFP-LC3 puncta
  LC3 puncta per cell compared to control siRNA: statistically significant increase
mTORC1 [2]
  amino acid-induced S6K phosphorylation: significantly inhibited

## VRS siRNA: siRNA AGAAGAGGAUGUCAUGACCGGUCUC, SEQ ID NO 17 (chemistry not given here)
293T cells
  cell size: no effect
mTORC1 [2]
  amino acid-induced S6K phosphorylation: not

## CC(C)C[C@H](N)C(N)=O [leucinamide, L-Leucinamide]
mTORC1 [1]
  S6K phosphorylation by the leucine analogue itself: significantly induced
  leucine-induced S6K phosphorylation: further increased
mTORC1 [2]
  S6K phosphorylation by the leucine analogue itself: significantly induced
  leucine-induced S6K phosphorylation: further increased

## Nc1nc2c(ncn2[C@@H]2O[C@H](COP(=O)(O)OP(O)(O)=S)[C@@H](O)[C@H]2O)c(=O)[nH]1 [GDPβS]
LRS / RagD binding; GST-LRS with HA-RagD transfected 293T cell lysates, presence of nucleotide analogue
  binding affinity of LRS to RagD: significantly reduced

— US9435807B2, “Use of leucyl tRNA synthetase” (Medicinal Bioconvergence Research Center, priority 2011, dated 2016)
